The text below walks through data of US9034865B2, “Pyrido [4,3-B] indole and pyrido [3,4-B] indole derivatives and methods of use” (Medivation Technologies, Inc., priority 2010, dated 2015).

Assay [1] has as its target T1, human recombinant serotonin (5-Hydroxytryptamine) 5-HT2C receptor (Homo sapiens, UniProt P28335).
T1 construct: expressed in transfected cells; host or cells: CHO-K1
T1 sequence (P28335 33-458): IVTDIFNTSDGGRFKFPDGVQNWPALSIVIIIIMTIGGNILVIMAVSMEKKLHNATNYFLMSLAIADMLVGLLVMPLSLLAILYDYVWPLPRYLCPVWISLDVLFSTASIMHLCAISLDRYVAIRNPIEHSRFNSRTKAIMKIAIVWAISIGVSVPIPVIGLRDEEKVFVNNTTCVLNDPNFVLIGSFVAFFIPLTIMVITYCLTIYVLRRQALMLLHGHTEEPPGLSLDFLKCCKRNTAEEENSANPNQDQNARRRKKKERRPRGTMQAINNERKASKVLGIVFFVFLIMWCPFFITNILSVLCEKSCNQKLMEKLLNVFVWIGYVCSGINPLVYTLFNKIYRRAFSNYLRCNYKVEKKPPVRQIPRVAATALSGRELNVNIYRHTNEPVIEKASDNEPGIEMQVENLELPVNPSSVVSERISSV
In words: Serotonin 5-HT2C radioligand binding ([3H]Mesulergine). The following applies: compound at 0.1 μM; read-out: Percentage inhibition of ligand binding, Serotonin (0.1 μM) 5-HT2C. As for the experimental part:
To evaluate in radioligand binding assays the activity of compounds of the invention, human recombinant serotonin (5-Hydroxytryptamine) 5-HT2C receptor expressed in Chinese hamster ovary (CHO) K1 cells (Wolf, W. et al, J. Neurochem. 69:1449, 1997) in a modified Tris-HCl buffer (50 mM Tris-HCl, pH 7.4, 0.1% Ascorbic Acid, 10 μM Pargyline) was used. Compounds of the invention were incubated with 1 nM [^3H]Mesulergine for 60 min at 25° C. Non-specific binding was estimated in the presence of 1 μM Mianserin. Receptor proteins were filtered and washed, the filters were then counted to determine [^3H]Mesulergine specifically bound. Compounds were screened at 1 μM or lower, using 1% DMSO as vehicle. Biochemical assay results are presented as the percent inhibition of specific binding in Table 4.

The target in assay [2] is T2, human recombinant serotonin (5-Hydroxytryptamine) 5-HT7 receptor (Homo sapiens, UniProt P34969).
T2 construct: expressed in transfected cells; host or cells: CHO
T2 sequence (P34969 whole entry): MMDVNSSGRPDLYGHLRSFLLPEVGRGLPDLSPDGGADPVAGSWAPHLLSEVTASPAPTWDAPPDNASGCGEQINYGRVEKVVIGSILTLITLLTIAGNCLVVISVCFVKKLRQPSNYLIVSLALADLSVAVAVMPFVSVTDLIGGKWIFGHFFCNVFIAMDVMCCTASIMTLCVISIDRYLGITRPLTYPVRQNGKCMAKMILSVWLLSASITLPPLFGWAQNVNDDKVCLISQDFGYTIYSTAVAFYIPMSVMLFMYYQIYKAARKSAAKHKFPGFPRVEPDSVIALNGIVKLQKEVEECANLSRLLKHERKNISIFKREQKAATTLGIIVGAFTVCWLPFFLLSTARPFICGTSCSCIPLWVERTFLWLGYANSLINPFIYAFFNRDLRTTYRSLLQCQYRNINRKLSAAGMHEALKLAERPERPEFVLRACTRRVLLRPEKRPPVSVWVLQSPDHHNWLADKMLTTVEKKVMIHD
In words: Serotonin 5-HT7 radioligand binding ([3H]LSD). Particulars: compound at 0.1 μM; read-out: Percentage inhibition of ligand binding, Serotonin (0.1 μM) 5-HT7. On the procedure: To evaluate in radioligand binding assays the activity of compounds of the invention, human recombinant serotonin (5-Hydroxytryptamine) 5-HT7 receptor expressed in Chinese hamster ovary (CHO) cells (Roth, B. et al, J. Pharmacol. Exp. Ther. 268:1403, 1994; Shen, Y. et al, J. Biol. Chem. 268:18200, 1993) in a modified Tris-HCl buffer (50 mM Tris-HCl, pH 7.4, 10 mM MgCl2, 0.5 mM EDTA) was used. Compounds of invention were incubated with 5.5 nM [^3H] Lysergic acid diethylamide (LSD) for 2 h at 25° C. Non-specific binding was estimated in the presence of 10 μM Serotonin (5-HT). Receptor proteins were filtered and washed, the filters were then counted to determine [^3H]LSD specifically bound. Compounds were screened at 1 μM or lower, using 1% DMSO as vehicle. Biochemical assay results are presented as the percent inhibition of specific binding in Table 4.

Assay [3] addresses T3, human recombinant histamine H1 receptor (Homo sapiens, UniProt P35367).
T3 construct: expressed in transfected cells; host or cells: CHO-K1
In words: Histamine H1 radioligand binding ([3H]Pyrilamine). Particulars: compound at 0.1 μM; 1.2 nM [3H]Pyrilamine; read-out: Binding data (Percentage inhibition) Histamine H1 (0.1 μM). As for the experimental part:
To evaluate in radioligand binding assays the activity of compounds of the invention, human recombinant histamine H1 receptor expressed in Chinese hamster ovary (CHO) K1 cells (De Backer, M. et al, Biochem. Biophys. Res. Comm. 197(3):1601, 1993) in a modified Tris-HCl buffer (50 mM Tris-HCl, pH 7.4, 2 mM MgCl2, 100 mM NaCl, 250 mM Sucrose) was used. Compounds of the invention were incubated with 1.2 nM [^3H]Pyrilamine for 180 min at 25° C. Non-specific binding was estimated in the presence of 1 μM Pyrilamine. Receptor proteins were filtered and washed, the filters were then counted to determine [^3H]Pyrilamine specifically bound. Compounds were screened at 1 μM or lower, using 1% DMSO as vehicle. Biochemical assay results are presented as the percent inhibition of specific binding in Table 2.

The target of assay [4] is T4, human recombinant serotonin (5-Hydroxytryptamine) 5-HT5A receptor (Homo sapiens, UniProt P47898).
T4 construct: expressed in transfected cells; host or cells: CHO-K1
T4 sequence (P47898 whole entry): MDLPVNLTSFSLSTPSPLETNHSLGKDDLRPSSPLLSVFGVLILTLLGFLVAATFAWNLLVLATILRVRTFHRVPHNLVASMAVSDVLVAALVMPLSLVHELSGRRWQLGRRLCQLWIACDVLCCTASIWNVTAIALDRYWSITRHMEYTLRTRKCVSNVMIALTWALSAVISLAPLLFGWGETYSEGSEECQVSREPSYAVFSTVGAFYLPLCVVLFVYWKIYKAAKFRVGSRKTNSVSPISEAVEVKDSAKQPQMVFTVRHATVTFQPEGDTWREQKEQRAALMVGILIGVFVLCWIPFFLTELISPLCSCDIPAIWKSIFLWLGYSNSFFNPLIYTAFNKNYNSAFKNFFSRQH
In words: Serotonin 5-HT5A radioligand binding ([3H]LSD). Particulars: compound at 0.1 μM; read-out: Percentage inhibition of ligand binding, Serotonin (0.1 μM) 5-HT5A. As for the experimental part: To evaluate in radioligand binding assays the activity of compounds of the invention, human recombinant serotonin (5-Hydroxytryptamine) 5-HT5A receptor expressed in Chinese hamster ovary (CHO) K1 cells (Rees, S. et al, FEBS Lett. 355:242, 1994) in a modified Tris-HCl buffer (50 mM Tris-HCl, pH 7.4, 10 mM MgCl2, 0.5 mM EDTA) was used. Compounds of the invention were incubated with 1.7 nM [^3H]Lysergic acid diethylamide (LSD) for 60 min at 37° C. Non-specific binding was estimated in the presence of 100 μM Serotonin (5-HT). Receptor proteins were filtered and washed, the filters were counted to determine [^3H]LSD specifically bound. Compounds were screened at 1 μM or lower, using 1% DMSO as vehicle. Biochemical assay results are presented as the percent inhibition of specific binding in Table 4.

The target in assay [5] is T5, human recombinant serotonin (5-Hydroxytryptamine) 5-HT2A receptor (Homo sapiens, UniProt P28223).
T5 construct: expressed in transfected cells; host or cells: CHO-K1
T5 sequence (P28223 whole entry): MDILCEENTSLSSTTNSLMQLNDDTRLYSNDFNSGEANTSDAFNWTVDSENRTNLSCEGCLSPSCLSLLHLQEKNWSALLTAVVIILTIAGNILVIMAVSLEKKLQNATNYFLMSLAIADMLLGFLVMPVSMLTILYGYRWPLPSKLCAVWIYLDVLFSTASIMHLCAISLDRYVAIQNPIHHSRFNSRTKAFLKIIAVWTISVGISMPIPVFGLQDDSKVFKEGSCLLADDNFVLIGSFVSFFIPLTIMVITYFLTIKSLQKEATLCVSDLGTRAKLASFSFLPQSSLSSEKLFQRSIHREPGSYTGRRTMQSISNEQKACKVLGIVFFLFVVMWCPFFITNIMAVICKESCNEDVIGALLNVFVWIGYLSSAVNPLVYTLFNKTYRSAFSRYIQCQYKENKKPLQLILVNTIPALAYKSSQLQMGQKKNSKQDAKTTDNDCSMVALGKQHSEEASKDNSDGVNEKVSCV
In words: Serotonin 5-HT2A radioligand binding ([3H]Ketanserin). The following applies: compound at 0.1 μM; read-out: Percentage inhibition of ligand binding, Serotonin (0.1 μM) 5-HT2A. As for the experimental part: To evaluate in radioligand binding assays the activity of compounds of the invention, human recombinant serotonin (5-Hydroxytryptamine) 5-HT2A receptor expressed in Chinese hamster ovary (CHO) K1 cells (Bonhaus, D. et al, Br. J. Pharmacol. 115:622, 1995; Saucier, C. et al, J. Neurochem. 68:1998, 1997) in a 50 mM Tris-HCl buffer, pH 7.4, was used. Compounds of the invention were incubated with 0.5 nM [^3H]Ketanserin for 60 min at 25° C. Non-specific binding was estimated in the presence of 1 μM Mianserin. Receptor proteins were filtered and washed, the filters were then counted to determine [^3H]Ketanserin specifically bound. Compounds were screened at 1 μM or lower, using 1% DMSO as vehicle. Biochemical assay results are presented as the percent inhibition of specific binding in Table 4.

T3 sequence (P35367 whole entry): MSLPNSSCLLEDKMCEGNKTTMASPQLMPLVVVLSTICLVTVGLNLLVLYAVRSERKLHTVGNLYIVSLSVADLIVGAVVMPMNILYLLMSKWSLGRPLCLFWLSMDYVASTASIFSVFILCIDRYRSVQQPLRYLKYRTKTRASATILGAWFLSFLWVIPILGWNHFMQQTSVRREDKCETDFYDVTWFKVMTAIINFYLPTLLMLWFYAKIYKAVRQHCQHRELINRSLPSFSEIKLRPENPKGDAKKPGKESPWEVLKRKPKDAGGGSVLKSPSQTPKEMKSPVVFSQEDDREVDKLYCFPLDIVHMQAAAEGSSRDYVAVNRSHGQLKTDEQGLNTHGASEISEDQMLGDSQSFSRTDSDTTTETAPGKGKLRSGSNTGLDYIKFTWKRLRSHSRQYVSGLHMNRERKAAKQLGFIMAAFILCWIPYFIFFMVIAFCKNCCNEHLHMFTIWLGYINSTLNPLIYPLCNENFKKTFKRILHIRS

With `Cc1cc(-c2ccc(F)cc2)c2c(c1)c1c(n2C)CCN(C)C1` [Compound 7], the inhibition – broadly, the relative decrease from the control value, in per cent – at 0.1 µM is 36% in assay [1]; 12% in assay [2]; 6% in assay [3]; -4% in assay [4]; 6% in assay [5].

On to `Cc1cc(C#Cc2cccs2)c2[nH]c3c(c2c1)CN(C)CC3` [Compound 8], for which the inhibition at 0.1 µM is 4% in assay [1]; 6% in assay [2]; -3% in assay [3]; -14% in assay [4]; 27% in assay [5].

Consider `Cc1cc(-c2ccncc2)c2c(c1)c1c(n2C)CCN(C)C1` [Compound 9], for which the inhibition at 0.1 µM in assay [1] is 9%; in assay [2], 26%; in assay [3], 0%; in assay [4] it was 6%; in assay [5] it was 5%.

On to `C#Cc1cc(C)cc2c3c(n(C)c12)CCN(C)C3` [Compound 10, 6-Ethynyl-2,3,4,5-tetrahydro-2,5,8-trimethyl-1H-pyrido[4,3-b]indole], for which the inhibition at 0.1 µM in assay [1] was 55%; in assay [2] it was 14%; in assay [3], 5%; in assay [4] it was 1%; in assay [5] it was 37%.

Take `C/C(=C\c1cc(C)cc2c3c(n(C)c12)CCN(C)C3)c1ccncc1` [Compound 11]: the inhibition at 0.1 µM in assay [1] was -11%; in assay [2], -17%; in assay [3] it was -3%; in assay [4], -19%; in assay [5] it was 13%.

Consider `Cc1cc(C#Cc2ccc(C)nc2)c2c(c1)c1c(n2C)CCN(C)C1` [Compound 12, 2,3,4,5-tetrahydro-2,5,8-trimethyl-6-(2-(6-methylpyridin-3-yl)ethynyl)-1H-pyrido[4,3-b]indole], for which the inhibition at 0.1 µM in assay [1] was 3%; in assay [2], 5%; in assay [3] it was -14%; in assay [4] it was -21%; in assay [5] it was 23%.

With `Cc1cc(CCc2ccc(C)nc2)c2c(c1)c1c(n2C)CCN(C)C1` [Compound 13], the inhibition at 0.1 µM was -11% in assay [1]; 16% in assay [2]; 28% in assay [3]; 15% in assay [4]; 13% in assay [5].

For `Cc1cc(/C=C/c2ccc(C)nc2)c2c(c1)c1c(n2C)CCN(C)C1` [Compound 14], the inhibition at 0.1 µM is 1% in assay [1]; 13% in assay [2]; 25% in assay [3]; -7% in assay [4]; -7% in assay [5].

Consider `C/C(=C\c1cc(C)cc2c3c(n(C)c12)CCN(C)C3)c1ccc(C)nc1` [Compound 15], for which the inhibition at 0.1 µM was 28% in assay [1]; 36% in assay [2]; 2% in assay [3]; 11% in assay [4]; 1% in assay [5].

Turning to `Cc1cc(C#Cc2nccs2)c2[nH]c3c(c2c1)CN(C)CC3` [Compound 16], the inhibition at 0.1 µM in assay [1] was 20%; in assay [2], 35%; in assay [3] it was 9%; in assay [4], -2%; in assay [5] it was 21%.

As to `Cc1cc(C#Cc2ccncc2)c2c(c1)c1c(n2C)CCN(C)C1` [Compound 17], the inhibition at 0.1 µM amounted to 19% in assay [1]; 23% in assay [2]; 39% in assay [3]; 15% in assay [4]; 24% in assay [5].

As to `Cc1ccc(C#Cc2cc(Cl)cc3c4c(n(C)c23)CCN(C)C4)cn1` [Compound 18], the inhibition at 0.1 µM stood at 27% in assay [1]; 8% in assay [2]; 12% in assay [3]; 17% in assay [4]; 80% in assay [5].
